After the bases stand the sugars from the 5' end (letter, count) and the backbone: PS all phosphorothioate, else s phosphorothioate and o phosphodiester by linkage. Methylation of C is not given here. l = locked nucleic acid (LNA); d = 2'-deoxy (DNA)

In this series the target is SNHG14. Particulars: ASO.
The mark [1] stands for this setting: Mouse Primary Neuronal Cell, 0.005 µM.

With TTTATCTCATGACCAC (sugars l2 d10 l4, PS), the target mRNA inhibition reads like this: (Human Neuronal Cell, 0.2 µM) 53%; (Human Neuronal Cell, 1 µM) 63%.
Regarding “CGAATCTTGACATACAGG (sugars l3 d12 l3, PS)”, the target mRNA inhibition runs as follows: (Human Neuronal Cell, 0.2 µM) 8%; (Human Neuronal Cell, 1 µM) 19%; (Human Neuronal Cell, 5 µM) 14%.
With TGAACAACTTCTATCA (sugars l3 d10 l3, PS), the target mRNA inhibition was found to be 17% (Human Neuronal Cell, 0.2 µM) and 16% (Human Neuronal Cell, 1 µM).
Consider TTACTCTGCAATACAC (sugars l3 d10 l3, PS), for which the target mRNA inhibition was 46% (Human Neuronal Cell, 0.2 µM) and 61% (Human Neuronal Cell, 1 µM).
Turning to “AGATCATTCTCAACAATTA (sugars ldlddldddddddllldll, PS)”, the target mRNA inhibition (Human Neuronal Cell, 7.5 µM) came out at 50%.
AGCACATATACCATCA (sugars l4 d10 l2, PS): the target mRNA inhibition (Human Neuronal Cell, 0.2 µM) came out at 51% and the target mRNA inhibition (Human Neuronal Cell, 1 µM) is 56%.
Regarding “ATTGATTCAATTCCCTT (sugars ldddldddddddlldll, PS)”, where the note is “Human Neuronal Cell, 7.5 µM”, the target mRNA inhibition stood at 57%.
With GCTCACACTAATTATT (sugars l2 d10 l4, PS), the target mRNA inhibition came out at 25% (Human Neuronal Cell, 0.2 µM) and 43% (Human Neuronal Cell, 1 µM).
As to TTCAACCCTAATCACT (sugars l4 d10 l2, PS), the target mRNA inhibition (Human Neuronal Cell, 0.2 µM) was determined as 39% and the target mRNA inhibition (Human Neuronal Cell, 1 µM) turned out to be 50%.
On to “TTCTGTATACACCATCC (sugars l1 d1 l1 d12 l2, PS)”, for which the target mRNA inhibition (Human Neuronal Cell, 7.5 µM) is 62%.
On the same count and under the same terms, the value for “TTATAGCCATTCTATCT (sugars l2 d2 l1 d10 l2, PS)” was 64%.
On the same count and under the same terms, the value for “TTGATTCAATTCCCTTA (sugars lddlldddddddlldll, PS)” was 66%.
Turning to TACTCTGCAATACACC (sugars l2 d10 l4, PS), the target mRNA inhibition runs as follows: (Human Neuronal Cell, 0.2 µM) 50%; (Human Neuronal Cell, 1 µM) 55%.
The matching figures for TATTTGTCACCAAACC (sugars l3 d10 l3, PS): 23% and -2%.
In the same order, the values of “CTTTACTCTGCAATACA (sugars l2 d11 l4, PS)” are 49% and 59%.
Take CCTCTGACAACCATTA (sugars l4 d10 l2, PS): the target mRNA inhibition by setting is: (Human Neuronal Cell, 0.2 µM) 30%; (Human Neuronal Cell, 1 µM) 31%.
With “TTATAGCCATTCTATCT (sugars l1 d11 l2 d1 l2, PS)”, the target mRNA inhibition (Human Neuronal Cell, 7.5 µM) worked out at 40%.
Consider GACCACACTTTCTACC (sugars l2 d12 l2, PS), for which the target mRNA inhibition is, setting by setting: (Human Neuronal Cell, 0.2 µM) 18%; (Human Neuronal Cell, 1 µM) 42%.
As to “AAATTATTTATACACCATCA (sugars ldllllddddddddldldll, PS)”, where the note is “Human Neuronal Cell, 7.5 µM”, the target mRNA inhibition amounted to 70%.
Still for that read-out and setting: the value for “TATTGATTCAATTCCCT (sugars l3 d9 l2 d1 l2, PS)” was 65%.
Regarding “ATAATCCCATACATCTA (sugars l3 d11 l3, PS)”, the target mRNA inhibition was 60% (Human Neuronal Cell, 0.2 µM) and 69% (Human Neuronal Cell, 1 µM).
Take “GCAACATTATTAACCACCT (sugars lddldldddddddddddll, PS)”: the target mRNA inhibition (Human Neuronal Cell, 7.5 µM) was determined as 60%.
Same read-out and setting: the value for “TTATAGCCATTCTATCT (sugars l2 d1 l2 d10 l2, PS)” was 64%.
For the sequence AAGAAACACCCTTCCA (sugars l2 d10 l4, PS), the target mRNA inhibition runs as follows: (Human Neuronal Cell, 0.2 µM) 40%; (Human Neuronal Cell, 1 µM) 54%.
“AAATCTCAACTACCATTTTT (sugars lldlldldddddddldddll, PS)”: the target mRNA inhibition (Human Neuronal Cell, 7.5 µM) is 53%.
With “ACATCTCATACTTGCTT (sugars l2 d11 l4, PS)”, the target mRNA inhibition (Human Neuronal Cell, 0.2 µM) is -4%; the target mRNA inhibition (Human Neuronal Cell, 1 µM) is 7%; the target mRNA inhibition (Human Neuronal Cell, 5 µM) was 9%; the target mRNA inhibition under setting [1] came to 96%.
In the case of “TTTCAGCTTTTAACCAGAGT (sugars l2 d15 l3, PS)”, the target mRNA inhibition (Human Neuronal Cell, 7.5 µM) was determined as 67%.
On the same count and under the same terms, next, “TTTACACTTAATTATACTTC (sugars lldddldddddddlllldll, PS)”: 51%.
With CTCCTTTATGACTCCA (sugars l3 d11 l2, PS), the target mRNA inhibition (Human Neuronal Cell, 0.2 µM) was 50% and the target mRNA inhibition (Human Neuronal Cell, 1 µM) was 56%.
On to “ATTTAAATTTCCAAACATT (sugars l2 d13 l4, PS)”, for which the target mRNA inhibition (Human Neuronal Cell, 0.2 µM) turned out to be 11% and the target mRNA inhibition (Human Neuronal Cell, 1 µM) is -17%.
As for “ATTTACACTTAATTATACTT (sugars ldlllldddddddldlddll, PS)”, under “Human Neuronal Cell, 7.5 µM”, the target mRNA inhibition was determined as 45%.
Regarding “TAAAATTATTTATACACCA (sugars lllldlddddddllddlll, PS)”, the target mRNA inhibition (Human Neuronal Cell, 7.5 µM) worked out at 31%.
For the sequence ACTCCTAAGAATTACA (sugars l4 d10 l2, PS), the target mRNA inhibition by setting is: (Human Neuronal Cell, 0.2 µM) 34%; (Human Neuronal Cell, 1 µM) 34%.
Turning to “TAAAATTATTTATACACCA (sugars lddlllddddddldlllll, PS)”, the target mRNA inhibition (Human Neuronal Cell, 7.5 µM) was determined as 30%.
As for “CTCATCCCTCCAAGAAA (sugars l4 d11 l2, PS)”, the target mRNA inhibition reads like this: (Human Neuronal Cell, 0.2 µM) -3%; (Human Neuronal Cell, 1 µM) -15%; (Human Neuronal Cell, 5 µM) -9%; under setting [1], 90.9%.
“TCTTATCCTTGAATTTC (sugars l4 d11 l2, PS)”: the target mRNA inhibition (Human Neuronal Cell, 0.2 µM) is 37% and the target mRNA inhibition (Human Neuronal Cell, 1 µM) was found to be 33%.
For “CAAAGATCATTCTCAACA (sugars l1 d1 l2 d8 l6, PS)”, the target mRNA inhibition (Human Neuronal Cell, 7.5 µM) is 58%.
Still for that read-out and setting: the value for “ATCATTCTCAACAATTAA (sugars l4 d8 l6, PS)” was 44%.
Regarding “ACACATTATATTTAAACTA (sugars l3 d13 l3, PS)”, the target mRNA inhibition was 8% (Human Neuronal Cell, 0.2 µM) and -2% (Human Neuronal Cell, 1 µM).
In the same order, the values of TTATTTATACACCATC (sugars l2 d10 l4, PS) are 78% and 74%.
The matching figures for TTTCTTACTATCTTCA (sugars l4 d10 l2, PS): 53% and 61%.
In the case of “TCCATTTATTTCCATTTAT (sugars ldlldddddddddldddll, PS)”, the target mRNA inhibition (Human Neuronal Cell, 7.5 µM) amounted to 50%.
Take “TAAAATTATTTATACACCA (sugars lldlldddddddldldlll, PS)”: the target mRNA inhibition (Human Neuronal Cell, 7.5 µM) came out at 47%.
Still for that read-out and setting: the value for “AAATTATTTATACACCATCA (sugars ldddlldddddddldldlll, PS)” was 67%.
With “TCTTCAGCTTTCTAAAT (sugars l4 d11 l2, PS)”, the target mRNA inhibition runs as follows: (Human Neuronal Cell, 0.2 µM) 5%; (Human Neuronal Cell, 1 µM) 24%.
In the case of “TACTCTGCAATACACCA (sugars ldlddddddddddldll, PS)”, under “Human Neuronal Cell, 7.5 µM”, the target mRNA inhibition worked out at 64%.
Regarding “GACCTCAATACTCTACT (sugars l3 d11 l3, PS)”, the target mRNA inhibition (Human Neuronal Cell, 0.2 µM) was 49% and the target mRNA inhibition (Human Neuronal Cell, 1 µM) came to 58%.
With CTCTTTAGATTCATCC (sugars l4 d10 l2, PS), the target mRNA inhibition runs as follows: (Human Neuronal Cell, 0.2 µM) 56%; (Human Neuronal Cell, 1 µM) 48%.
The matching figures for “TTACTCTGCAATACACC (sugars l2 d11 l4, PS)”: 55% and 57%.
As for TTAGTATACCCTTTAT (sugars l3 d10 l3, PS), the target mRNA inhibition is, setting by setting: (Human Neuronal Cell, 0.2 µM) 28%; (Human Neuronal Cell, 1 µM) 20%.
With “TCTTTCCATTTATTTCCAT (sugars l2 d13 l1 d1 l2, PS)”, the target mRNA inhibition (Human Neuronal Cell, 7.5 µM) amounted to 42%.
Still for that read-out and setting: the value for “TTATACCTTTCTTTAACCCT (sugars ldddddddddddddldldll, PS)” was 58%.
